Drawing on ChEMBL document CHEMBL5649166, “RIP3 induces apoptosis independent of pronecrotic kinase activity” (Mol Cell, 2014), this text covers residual activity and inhibition for three molecules.

For assay [1], the target named is Tyrosine-protein kinase ABL1 (Homo sapiens) (UniProt P00519). Put plainly: Inhibition of human ABL1 using EAIYAAPFAKKK as substrate at 1 uM in presence of 32P-ATP by Hotspot assay relative to control; values are per cent of control.
The target of assay [2] is Mast/stem cell growth factor receptor Kit (Homo sapiens) (UniProt P10721). The assay is described as follows: Residual activity of human c-Kit using poly[Glu:Tyr] (4:1) as substrate at 1 uM in presence of 32P-ATP by Hotspot assay relative to control.
Chain of Mast/stem cell growth factor receptor Kit (Homo sapiens) (P10721 whole entry): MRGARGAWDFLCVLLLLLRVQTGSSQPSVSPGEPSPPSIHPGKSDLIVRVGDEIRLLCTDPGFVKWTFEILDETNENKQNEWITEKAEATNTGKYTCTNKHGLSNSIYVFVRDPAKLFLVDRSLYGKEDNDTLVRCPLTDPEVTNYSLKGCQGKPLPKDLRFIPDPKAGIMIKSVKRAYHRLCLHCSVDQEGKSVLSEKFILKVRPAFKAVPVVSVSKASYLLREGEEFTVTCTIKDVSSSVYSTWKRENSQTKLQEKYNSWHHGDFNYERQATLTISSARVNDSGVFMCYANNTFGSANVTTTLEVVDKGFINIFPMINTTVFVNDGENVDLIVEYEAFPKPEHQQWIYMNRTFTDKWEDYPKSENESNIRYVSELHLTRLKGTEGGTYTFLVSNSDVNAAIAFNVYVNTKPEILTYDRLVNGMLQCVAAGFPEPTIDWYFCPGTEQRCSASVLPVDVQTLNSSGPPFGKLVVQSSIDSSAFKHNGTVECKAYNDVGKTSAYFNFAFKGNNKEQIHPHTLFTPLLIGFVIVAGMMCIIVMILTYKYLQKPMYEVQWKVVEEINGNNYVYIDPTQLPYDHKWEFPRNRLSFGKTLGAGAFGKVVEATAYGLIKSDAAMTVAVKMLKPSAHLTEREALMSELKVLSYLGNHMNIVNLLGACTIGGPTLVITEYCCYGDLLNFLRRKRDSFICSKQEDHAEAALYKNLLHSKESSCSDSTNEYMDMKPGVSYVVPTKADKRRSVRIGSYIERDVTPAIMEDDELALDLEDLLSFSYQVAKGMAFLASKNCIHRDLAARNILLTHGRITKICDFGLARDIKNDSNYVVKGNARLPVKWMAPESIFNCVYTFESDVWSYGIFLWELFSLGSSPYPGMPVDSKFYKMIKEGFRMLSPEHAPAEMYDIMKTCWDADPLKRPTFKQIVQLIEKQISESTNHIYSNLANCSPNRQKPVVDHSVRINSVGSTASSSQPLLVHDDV
The target of assay [3] is T1, Protein kinase C zeta type (Homo sapiens) (UniProt Q05513).
T1 sequence (whole entry): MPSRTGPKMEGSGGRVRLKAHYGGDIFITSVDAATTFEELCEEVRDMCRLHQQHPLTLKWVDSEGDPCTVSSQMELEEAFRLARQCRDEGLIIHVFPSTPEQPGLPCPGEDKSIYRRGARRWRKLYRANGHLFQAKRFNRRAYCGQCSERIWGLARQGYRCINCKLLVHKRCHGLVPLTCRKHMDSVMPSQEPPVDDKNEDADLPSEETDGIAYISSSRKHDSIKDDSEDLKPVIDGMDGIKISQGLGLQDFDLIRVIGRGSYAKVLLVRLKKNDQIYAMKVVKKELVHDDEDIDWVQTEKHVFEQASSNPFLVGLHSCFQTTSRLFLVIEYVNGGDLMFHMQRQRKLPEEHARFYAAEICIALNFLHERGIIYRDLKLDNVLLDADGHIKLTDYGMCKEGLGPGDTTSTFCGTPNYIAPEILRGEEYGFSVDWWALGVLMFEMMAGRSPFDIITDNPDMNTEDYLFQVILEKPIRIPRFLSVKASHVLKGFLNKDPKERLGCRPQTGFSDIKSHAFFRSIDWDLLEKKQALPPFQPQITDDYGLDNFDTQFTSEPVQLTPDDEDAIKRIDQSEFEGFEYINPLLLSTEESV
Put plainly: Inhibition of human PKCzeta using ERMRPRKRQGSVRRRV as substrate at 1 uM in presence of 32P-ATP by Hotspot assay relative to control; values are per cent of control.

For assay [4], the target named is Macrophage-stimulating protein receptor (Homo sapiens) (UniProt Q04912). The assay is described as follows: Inhibition of human RON/MST1R using KKSRGDYMTMQIG as substrate at 1 uM in presence of 32P-ATP by Hotspot assay relative to control.
Chain of Macrophage-stimulating protein receptor (Homo sapiens) (Q04912 25-304 limits assumed): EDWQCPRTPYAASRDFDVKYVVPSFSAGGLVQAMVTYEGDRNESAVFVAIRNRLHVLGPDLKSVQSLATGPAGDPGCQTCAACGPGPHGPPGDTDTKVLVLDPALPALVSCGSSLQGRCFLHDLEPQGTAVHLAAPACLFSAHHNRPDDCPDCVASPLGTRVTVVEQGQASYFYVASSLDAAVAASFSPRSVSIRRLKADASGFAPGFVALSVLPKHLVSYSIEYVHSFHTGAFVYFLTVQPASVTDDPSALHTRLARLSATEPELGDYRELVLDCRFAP
Chain of Macrophage-stimulating protein receptor (Homo sapiens) (Q04912 310-1400 limits assumed): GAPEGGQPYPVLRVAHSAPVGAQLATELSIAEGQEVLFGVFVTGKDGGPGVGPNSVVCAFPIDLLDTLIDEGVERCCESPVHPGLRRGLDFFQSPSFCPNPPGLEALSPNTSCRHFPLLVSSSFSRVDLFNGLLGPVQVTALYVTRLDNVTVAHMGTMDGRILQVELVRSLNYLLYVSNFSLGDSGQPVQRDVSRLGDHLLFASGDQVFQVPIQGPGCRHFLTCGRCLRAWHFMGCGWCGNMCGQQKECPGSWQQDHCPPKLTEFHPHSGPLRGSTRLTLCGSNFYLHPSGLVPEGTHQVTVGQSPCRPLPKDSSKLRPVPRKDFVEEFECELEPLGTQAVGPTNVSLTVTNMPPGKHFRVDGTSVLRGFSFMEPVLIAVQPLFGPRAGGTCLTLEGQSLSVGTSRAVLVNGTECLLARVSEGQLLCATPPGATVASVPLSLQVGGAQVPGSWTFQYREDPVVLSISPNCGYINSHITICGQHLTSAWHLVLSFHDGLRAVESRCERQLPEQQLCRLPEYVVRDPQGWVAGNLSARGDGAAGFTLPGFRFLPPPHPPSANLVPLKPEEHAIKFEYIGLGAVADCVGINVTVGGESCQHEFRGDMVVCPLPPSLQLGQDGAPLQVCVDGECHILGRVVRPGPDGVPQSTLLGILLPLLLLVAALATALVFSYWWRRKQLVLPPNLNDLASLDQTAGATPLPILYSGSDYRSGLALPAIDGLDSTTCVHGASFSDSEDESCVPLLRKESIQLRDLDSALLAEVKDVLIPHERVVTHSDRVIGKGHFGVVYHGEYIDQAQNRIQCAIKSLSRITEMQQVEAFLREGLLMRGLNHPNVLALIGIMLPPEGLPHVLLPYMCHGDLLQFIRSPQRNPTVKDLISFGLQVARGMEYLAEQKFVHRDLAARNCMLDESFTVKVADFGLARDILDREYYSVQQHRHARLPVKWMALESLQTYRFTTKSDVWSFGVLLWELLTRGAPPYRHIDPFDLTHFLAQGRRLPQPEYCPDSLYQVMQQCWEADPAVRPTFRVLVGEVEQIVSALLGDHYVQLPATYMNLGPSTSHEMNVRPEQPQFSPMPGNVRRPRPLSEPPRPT
The target of assay [5] is Serine/threonine-protein kinase Nek6 (Homo sapiens) (UniProt Q9HC98). Put plainly: Inhibition of human NEK6 using casein as substrate at 1 uM in presence of 32P-ATP by Hotspot assay relative to control; values are per cent of control.
Chain of Serine/threonine-protein kinase Nek6 (Homo sapiens) (Q9HC98 whole entry): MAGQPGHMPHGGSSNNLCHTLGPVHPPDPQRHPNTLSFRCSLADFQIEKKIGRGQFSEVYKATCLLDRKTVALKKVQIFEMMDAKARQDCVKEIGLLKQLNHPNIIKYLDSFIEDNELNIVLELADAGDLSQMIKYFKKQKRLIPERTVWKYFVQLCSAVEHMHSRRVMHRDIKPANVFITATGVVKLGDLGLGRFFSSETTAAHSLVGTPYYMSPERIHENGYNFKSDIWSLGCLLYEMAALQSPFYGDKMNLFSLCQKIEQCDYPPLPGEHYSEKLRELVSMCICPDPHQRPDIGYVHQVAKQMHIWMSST
Assay [6] has as its target T2, Serine/threonine-protein kinase Nek1 (Homo sapiens) (UniProt Q96PY6).
T2 sequence (whole entry): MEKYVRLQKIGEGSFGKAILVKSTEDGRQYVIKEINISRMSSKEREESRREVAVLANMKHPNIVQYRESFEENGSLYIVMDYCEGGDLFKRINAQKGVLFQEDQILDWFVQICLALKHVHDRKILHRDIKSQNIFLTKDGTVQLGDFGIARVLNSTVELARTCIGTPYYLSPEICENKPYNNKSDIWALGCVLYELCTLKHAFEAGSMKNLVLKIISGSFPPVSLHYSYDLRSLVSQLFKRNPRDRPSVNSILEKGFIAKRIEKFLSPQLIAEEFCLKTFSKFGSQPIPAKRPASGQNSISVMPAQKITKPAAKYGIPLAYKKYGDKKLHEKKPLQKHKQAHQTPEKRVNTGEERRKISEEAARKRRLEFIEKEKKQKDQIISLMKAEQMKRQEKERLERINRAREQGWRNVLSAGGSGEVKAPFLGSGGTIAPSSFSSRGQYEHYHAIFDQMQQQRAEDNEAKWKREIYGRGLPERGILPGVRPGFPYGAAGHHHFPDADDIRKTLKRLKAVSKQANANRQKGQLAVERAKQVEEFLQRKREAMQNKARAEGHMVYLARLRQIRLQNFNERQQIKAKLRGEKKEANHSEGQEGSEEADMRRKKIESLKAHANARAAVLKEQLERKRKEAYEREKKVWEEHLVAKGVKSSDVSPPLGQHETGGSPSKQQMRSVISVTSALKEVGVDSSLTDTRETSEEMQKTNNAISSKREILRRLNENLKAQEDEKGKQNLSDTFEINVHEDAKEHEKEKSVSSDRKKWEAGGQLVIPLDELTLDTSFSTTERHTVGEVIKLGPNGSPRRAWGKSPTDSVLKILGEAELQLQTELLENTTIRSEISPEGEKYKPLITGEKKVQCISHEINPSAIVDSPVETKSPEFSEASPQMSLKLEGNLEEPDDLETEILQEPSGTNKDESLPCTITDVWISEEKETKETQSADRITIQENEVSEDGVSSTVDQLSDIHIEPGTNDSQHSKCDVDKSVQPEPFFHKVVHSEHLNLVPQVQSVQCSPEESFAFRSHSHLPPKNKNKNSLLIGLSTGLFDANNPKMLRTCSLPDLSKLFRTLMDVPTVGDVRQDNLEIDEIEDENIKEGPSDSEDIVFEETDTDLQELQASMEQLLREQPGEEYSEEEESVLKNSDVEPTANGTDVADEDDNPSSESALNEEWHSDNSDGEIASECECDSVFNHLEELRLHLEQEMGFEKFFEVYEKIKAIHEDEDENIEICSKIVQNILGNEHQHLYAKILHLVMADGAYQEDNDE
Put plainly: Inhibition of human NEK1 using myelin basic protein as substrate at 1 uM in presence of 32P-ATP by Hotspot assay relative to control; values are per cent of control.

Assay [7] deals with Tyrosine-protein kinase Blk (Homo sapiens) (UniProt P51451). The assay is described as follows: Inhibition of human BLK using poly[Glu:Tyr] (4:1) as substrate at 1 uM in presence of 32P-ATP by Hotspot assay relative to control; values are per cent of control.
Chain of Tyrosine-protein kinase Blk (Homo sapiens) (P51451 2-505 limits assumed): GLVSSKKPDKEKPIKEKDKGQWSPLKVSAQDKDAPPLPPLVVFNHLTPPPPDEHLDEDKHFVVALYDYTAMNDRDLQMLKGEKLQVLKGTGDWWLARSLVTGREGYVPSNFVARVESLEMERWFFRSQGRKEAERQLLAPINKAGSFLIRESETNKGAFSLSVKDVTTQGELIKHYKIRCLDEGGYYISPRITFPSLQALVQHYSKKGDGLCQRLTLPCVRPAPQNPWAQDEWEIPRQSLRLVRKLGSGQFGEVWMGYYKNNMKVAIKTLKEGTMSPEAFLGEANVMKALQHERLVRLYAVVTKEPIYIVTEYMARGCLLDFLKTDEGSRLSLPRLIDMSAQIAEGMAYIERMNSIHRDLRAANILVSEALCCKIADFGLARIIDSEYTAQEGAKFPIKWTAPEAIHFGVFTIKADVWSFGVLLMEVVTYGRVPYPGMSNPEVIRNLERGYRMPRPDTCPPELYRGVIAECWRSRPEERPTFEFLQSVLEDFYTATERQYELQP
The target of assay [8] is Protein kinase C delta type (Homo sapiens) (UniProt Q05655). The assay is described as follows: Inhibition of human PKCd using ERMRPRKRQGSVRRRV as substrate at 1 uM in presence of 32P-ATP by Hotspot assay relative to control; values are per cent of control.
Chain of Protein kinase C delta type (Homo sapiens) (Q05655 whole entry, looked up): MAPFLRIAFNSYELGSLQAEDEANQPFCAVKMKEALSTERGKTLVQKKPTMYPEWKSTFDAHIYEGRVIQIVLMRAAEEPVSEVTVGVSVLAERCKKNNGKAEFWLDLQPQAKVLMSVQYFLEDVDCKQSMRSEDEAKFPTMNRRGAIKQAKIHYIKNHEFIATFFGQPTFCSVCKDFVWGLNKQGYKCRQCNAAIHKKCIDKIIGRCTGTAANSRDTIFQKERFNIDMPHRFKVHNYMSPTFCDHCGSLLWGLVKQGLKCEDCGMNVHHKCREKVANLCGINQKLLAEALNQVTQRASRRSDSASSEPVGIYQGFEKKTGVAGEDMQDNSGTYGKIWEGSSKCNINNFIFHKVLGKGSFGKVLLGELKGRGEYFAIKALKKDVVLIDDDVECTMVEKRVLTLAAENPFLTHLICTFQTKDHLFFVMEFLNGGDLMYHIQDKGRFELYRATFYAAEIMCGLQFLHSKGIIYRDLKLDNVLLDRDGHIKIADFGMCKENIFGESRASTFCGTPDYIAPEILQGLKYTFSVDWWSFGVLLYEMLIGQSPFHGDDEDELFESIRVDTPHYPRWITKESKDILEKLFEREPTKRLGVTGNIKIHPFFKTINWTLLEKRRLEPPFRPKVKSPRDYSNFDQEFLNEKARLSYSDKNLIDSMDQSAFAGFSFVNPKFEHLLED
The target in assay [9] is CDK9/Cyclin K (Homo sapiens) (UniProt P50750+O75909). The assay is described as follows: Inhibition of human CDK9/cyclin K using KTFCGTPEYLAPEVRREPRILSEEEQEMFRDFDYIADWC as substrate at 1 uM in presence of 32P-ATP by Hotspot assay relative to control; values are per cent of control.

Chain of Tyrosine-protein kinase ABL1 (Homo sapiens) (P00519 whole entry): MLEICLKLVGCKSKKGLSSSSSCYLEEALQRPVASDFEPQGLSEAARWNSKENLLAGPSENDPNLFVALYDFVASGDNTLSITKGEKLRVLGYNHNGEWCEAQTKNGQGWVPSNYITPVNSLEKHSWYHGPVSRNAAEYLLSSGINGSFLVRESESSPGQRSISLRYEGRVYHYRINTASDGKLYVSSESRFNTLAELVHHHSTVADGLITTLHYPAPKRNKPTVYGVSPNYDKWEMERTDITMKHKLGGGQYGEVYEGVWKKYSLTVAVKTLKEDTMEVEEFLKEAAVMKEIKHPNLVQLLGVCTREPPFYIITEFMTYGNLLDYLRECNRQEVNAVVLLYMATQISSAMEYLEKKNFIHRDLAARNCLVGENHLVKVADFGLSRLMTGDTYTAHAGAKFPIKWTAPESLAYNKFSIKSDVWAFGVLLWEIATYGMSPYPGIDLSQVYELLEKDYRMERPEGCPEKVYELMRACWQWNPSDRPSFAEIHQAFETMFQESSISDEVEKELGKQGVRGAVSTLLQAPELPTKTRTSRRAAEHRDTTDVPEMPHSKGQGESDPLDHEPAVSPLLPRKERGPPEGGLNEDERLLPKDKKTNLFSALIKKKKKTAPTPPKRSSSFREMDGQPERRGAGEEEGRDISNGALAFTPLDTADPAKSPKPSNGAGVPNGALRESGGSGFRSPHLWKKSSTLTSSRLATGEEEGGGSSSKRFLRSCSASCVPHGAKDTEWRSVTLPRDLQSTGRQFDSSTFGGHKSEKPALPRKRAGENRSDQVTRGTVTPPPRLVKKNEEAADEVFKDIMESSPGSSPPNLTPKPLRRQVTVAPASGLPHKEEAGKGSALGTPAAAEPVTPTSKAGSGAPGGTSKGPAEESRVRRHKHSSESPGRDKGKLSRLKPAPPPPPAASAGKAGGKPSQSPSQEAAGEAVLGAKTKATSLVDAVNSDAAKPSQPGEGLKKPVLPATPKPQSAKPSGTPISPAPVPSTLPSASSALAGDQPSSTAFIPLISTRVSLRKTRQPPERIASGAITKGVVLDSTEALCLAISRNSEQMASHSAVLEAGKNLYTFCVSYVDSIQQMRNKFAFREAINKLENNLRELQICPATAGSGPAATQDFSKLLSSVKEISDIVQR

For the molecule `CC(C)S(=O)(=O)c1ccc2nccc(Nc3ccc4scnc4c3)c2c1`, the residual activity in assay [1] turned out to be 25.8%; in assay [2], 95.8%; in [3], 96.3%; in assay [5] it was 104%; in assay [6], 88.2%; in assay [7], 62.8%. Moreover, the values for the residual activity in assay [8] and in assay [9] were 86.3% and 94.5%, respectively. In addition, in [4], the inhibition was determined as 56.6%.
As for `CNC(=O)c1ccc2c(c1)ncn2-c1ccc(CC(=O)OC(C)(C)C)cc1`, the residual activity in [1] turned out to be 92.7%; in assay [2], 74.4%; in assay [3], 96.4%; in assay [5], 104%; in assay [6] it was 96.4%; in [7], 73.9%. Moreover, the residual activity in assay [8] is 90.1%; in assay [9], 99.6%. The inhibition in assay [4] was 97.8%.
With `Cc1cc(-c2cnc(N)c3c(-c4ccc5scnc5c4)csc23)n(C)n1`, the residual activity in [1] was 6.1%; in assay [2] it was 41.5%; in assay [3], 101%; in assay [5], 96%; in assay [6], 97.3%; in [7] it was 39.3%. Also, the residual activity in assay [8] amounted to 60.4%; in assay [9] it was 104%. Besides, in assay [4], the inhibition was 91.3%.
